Values after ≈ are worked out from the molar mass of the structure shown. Read-outs that look alike come from different tables or passages of the source.
Key:
Type in all cases: cell-based
P. aeruginosa = test: Broth dilution MIC determination (CLSI) against P. aeruginosa strains; conditions: Pseudomonas aeruginosa
Summary of the method: (§1)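 Azithromycin and solithromycin were run alongside as controls. Strain panels included multidrug-resistant isolates, with emphasis on macrolide-resistance mechanisms, and MICs followed CLSI broth dilution procedures.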

S. pneumoniae = test: Broth dilution MIC determination (CLSI) against S. pneumoniae strains; conditions: Streptococcus pneumoniae
Summary of the method: as §1

E. coli = test: Broth dilution MIC determination (CLSI) against E. coli strains; conditions: Escherichia coli
Summary of the method: as §1

S. pyogenes = test: Broth dilution MIC determination (CLSI) against S. pyogenes strains; conditions: Streptococcus pyogenes
Summary of the method: as §1

H. influenzae = test: Broth dilution MIC determination (CLSI) against H. influenzae strains; conditions: Haemophilus influenzae
Excerpt: Minimum inhibitory concentrations (MICs) for macrolides described herein have been determined for unique strains of S. aureus, S. pneumoniae, S. pyogenes, E. faecalis, E. coli, A. baumannii, K. pneumoniae, P. aeruginosa, and H. influenzae, including several multidrug-resistant strains, with a special focus on macrolide resistant mechanisms. Azithromycin and solithromycin were included as control compounds. CLSI standard procedures for broth dilution MIC determination were used. Data for exemplary compounds described herein is shown in Tables M1-M7 and in Tables N1-N4.

S. aureus = test: Broth dilution MIC determination (CLSI) against S. aureus strains; conditions: Staphylococcus aureus
Summary of the method: as §1

K. pneumoniae = test: Broth dilution MIC determination (CLSI) against K. pneumoniae strains; conditions: Klebsiella pneumoniae
Summary of the method: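 CLSI broth-dilution MICs across a panel including multidrug- and macrolide-resistant strains, with azithromycin and solithromycin as control compounds.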

A. baumannii = test: Broth dilution MIC determination (CLSI) against A. baumannii strains; conditions: Acinetobacter baumannii
Summary of the method: as §1

E. faecalis = test: Broth dilution MIC determination (CLSI) against E. faecalis strains; conditions: Enterococcus faecalis
Summary of the method: as §1

[1] = ATCC27853, read-out: MIC P. aeruginosa ATCC27853
[2] = read-out: MIC P. aeruginosa HPA101-1477
[3] = ATCC49619, ATCC49619, read-out: MIC S. pneumoniae ATCC49619
[4] = erm B + mef A genotype, read-out: MIC S. pneumoniae erm B + mef A genotype
[5] = erm B + tet(M, O) genotype, read-out: MIC S. pneumoniae erm B + tet(M, O) genotype
[6] = read-out: MIC S. pneumoniae mef A genotype, mef A genotype
[7] = read-out: MIC S. pneumoniae mef A genotype, mef A genotype, first of two such columns (c3)
[8] = ATCC25922, ATCC25922, read-out: MIC E. coli ATCC25922
[9] = read-out: MIC E. coli CTX-M-14, CTX-M-14
[10] = read-out: MIC E. coli NDM-1, NDM-1
[11] = read-out: MIC E. coli TEM-1, TEM-1
[12] = ATCC19615, ATCC19615, read-out: MIC S. pyogenes ATCC19615
[13] = macrolide-resistant, read-out: MIC S. pyogenes macrolide-resistant
[14] = ATCC49247, ATCC49247, read-out: MIC H. influenzae ATCC49247
[15] = erythro > 4, azithro 1, read-out: MIC H. influenzae erythro > 4, azithro 1
[16] = ATCC29213, ATCC29213, read-out: MIC S. aureus ATCC29213
[17] = USA600, USA600, GISA, read-out: MIC S. aureus USA600, GISA
[18] = read-out: MIC S. aureus erm A genotype
[19] = ATCC10031, ATCC10031, read-out: MIC K. pneumoniae ATCC10031
[20] = KPC-2, read-out: MIC K. pneumoniae KPC-2
[21] = SHV-12, read-out: MIC K. pneumoniae SHV-12
[22] = TEM-10, read-out: MIC K. pneumoniae TEM-10
[23] = ATCC19606, ATCC19606, read-out: MIC A. baumannii ATCC19606
[24] = IMP-4, read-out: MIC A. baumannii IMP-4
[25] = chromosomal class C, read-out: MIC A. baumannii chromosomal class C
[26] = imipenem-resistant, read-out: MIC A. baumannii imipenem-resistant
[27] = ATCC29212, ATCC29212, read-out: MIC E. faecalis ATCC29212
[28] = Vancomycin-resistant, read-out: MIC E. faecalis Vancomycin-resistant
[29] = MRSA / USA100, MRSA: USA100, read-out: MIC S. aureus MRSA: USA100
[30] = MRSA / USA300, MRSA: USA300, read-out: MIC S. aureus MRSA: USA300

| SMILES | MIC (P. aeruginosa; [1]) [µg/mL] | MIC (S. pneumoniae; [3]) [µg/mL] | MIC (S. pneumoniae; [4]) [µg/mL] | MIC (S. pneumoniae; [5]) [µg/mL] | MIC (S. pneumoniae; [6]) [µg/mL] | MIC (S. pneumoniae; [7]) [µg/mL] | MIC (E. coli; [8]) [µg/mL] | MIC (E. coli; [10]) [µg/mL] | MIC (S. pyogenes; [12]) [µg/mL] | MIC (S. pyogenes; [13]) [µg/mL] | MIC (H. influenzae; [14]) [µg/mL] | MIC (H. influenzae; [15]) [µg/mL] | MIC (S. aureus; [16]) [µg/mL] | MIC (S. aureus; [17]) [µg/mL] | MIC (S. aureus; [18]) [µg/mL] | MIC (K. pneumoniae; [19]) [µg/mL] | MIC (K. pneumoniae; [20]) [µg/mL] | MIC (A. baumannii; [23]) [µg/mL] | MIC (A. baumannii; [26]) [µg/mL] | MIC (E. faecalis; [27]) [µg/mL] | also measured |
| --- | --- | --- | --- | --- | --- | --- | --- | --- | --- | --- | --- | --- | --- | --- | --- | --- | --- | --- | --- | --- | --- |
| CC[C@H]1OC(=O)[C@H](C)[C@@H](O[C@H]2C[C@@](C)(OC)[C@@H](O)[C@H](C)O2)[C@H](C)[C@@H](O[C@@H]2O[C@H](C)C[C@H](N(C)C)[C@H]2O)[C@](C)(O)C[C@@H](C)CN(C)[C@H](C)[C@@H](O)[C@]1(C)O [Azithromycin, azithromycin, reference compound] | > 32 | < 0.0312 | > 32 | < 0.0312 | 4 (≈ 5.34 µM) | 0.25 (≈ 0.334 µM) | 4 (≈ 5.34 µM) | > 32 | < 0.0312 | 2 (≈ 2.67 µM) | 0.5 (≈ 0.668 µM) | 0.125 (≈ 0.167 µM) | 1 (≈ 1.34 µM) | > 32 | > 32 | 4 (≈ 5.34 µM) | > 32 | 16 (≈ 21.4 µM) | 8 (≈ 10.7 µM) | 4 (≈ 5.34 µM) | MIC (P. aeruginosa; [2]): > 32 µg/mL; MIC (E. coli; [9]): > 32 µg/mL; MIC (E. coli; [11]): 1 µg/mL (≈ 1.34 µM); MIC (S. aureus; MRSA / USA100, read-out: MIC S. aureus MRSA: USA100): > 32 µg/mL; MIC (S. aureus; MRSA / USA300, read-out: MIC S. aureus MRSA: USA300): 32 µg/mL (≈ 42.7 µM); MIC (K. pneumoniae; [21]): 16 µg/mL (≈ 21.4 µM); MIC (K. pneumoniae; [22]): 8 µg/mL (≈ 10.7 µM); MIC (A. baumannii; [24]): > 32 µg/mL; MIC (A. baumannii; [25]): 32 µg/mL (≈ 42.7 µM); MIC (E. faecalis; [28]): > 32 µg/mL |
| CC[C@H]1OC(=O)[C@H](C)C(=O)[C@H](C)[C@@H](O[C@@H]2OC(CN)CC(N(C)C)C2O)[C@](C)(OC)C[C@@H](C)CN[C@H](C)[C@H]2N(CCCCn3cc(-c4cccc(N)c4)nn3)C(=O)O[C@]12C (some centres unmarked) [FSM-21700] | > 32 | ≤ 0.0312 | 16 | 0.0625 | 2 (≈ 2.37 µM) | 0.5 (≈ 0.593 µM) | 32 (≈ 38 µM) | 16 (≈ 19 µM) | 0.0625 (≈ 0.0741 µM) | 2 (≈ 2.37 µM) | 32 (≈ 38 µM) | 16 (≈ 19 µM) | 8 (≈ 9.49 µM) | > 32 | 32 (≈ 38 µM) | 4 (≈ 4.74 µM) | > 32 | > 32 | > 32 | 8 (≈ 9.49 µM) | MIC (P. aeruginosa; [2]): > 32 µg/mL; MIC (E. coli; [9]): > 32 µg/mL; MIC (E. coli; [11]): 8 µg/mL (≈ 9.49 µM); MIC (S. aureus; [29]): > 32 µg/mL; MIC (S. aureus; [30]): > 32 µg/mL; MIC (K. pneumoniae; [21]): > 32 µg/mL; MIC (K. pneumoniae; [22]): 32 µg/mL (≈ 38 µM); MIC (A. baumannii; [24]): > 32 µg/mL; MIC (A. baumannii; [25]): > 32 µg/mL; MIC (E. faecalis; [28]): > 32 µg/mL |
| C=CCOC(=O)NCC1CC(N(C)C)C(O)[C@H](O[C@@H]2[C@@H](C)C(=O)[C@@H](C)C(=O)O[C@H](CC)[C@@]3(C)OC(=O)N(CCCCn4cc(-c5cccc(N)c5)nn4)[C@@H]3[C@@H](C)NC[C@H](C)C[C@@]2(C)OC)O1 (some centres unmarked) [FSM-21795] | 32 (≈ 34.5 µM) | 0.25 (≈ 0.27 µM) | > 32 | 0.0625 | 16 (≈ 17.3 µM) | 4 (≈ 4.31 µM) | 16 (≈ 17.3 µM) | > 32 | 0.0625 (≈ 0.0674 µM) | 2 (≈ 2.16 µM) | 4 (≈ 4.31 µM) | 8 (≈ 8.63 µM) | 16 (≈ 17.3 µM) | > 32 | > 32 | 8 (≈ 8.63 µM) | > 32 | 32 (≈ 34.5 µM) | 32 (≈ 34.5 µM) | 1 (≈ 1.08 µM) | MIC (S. aureus; [29]): > 32 µg/mL; MIC (S. aureus; [30]): > 32 µg/mL; MIC (E. faecalis; [28]): > 32 µg/mL |

— patent US11535643B2, “Macrolides with modified desosamine sugars and uses thereof” (President and Fellows of Harvard College, priority 2015, dated 2022)
